According to patent US20260335323A1, “CHIMERIC MOLECULE” (UCL Business Ltd, priority 2023, published 2026):

Assays:
p62/SQSTM1 = experiment: Western blot, p62/SQSTM1 levels in PANC-1 cells; type: cell-based, human
Excerpt: (§1) FIG. 2. BL-918 is a potent ULK1 agonist and autophagy inducer (A) Representative images of PANC-1 cells stably expressing the mCherry-EGFP-LC3 tandem reporter treated with ULK1 agonists. Nuclei stained with Hoechst 33342, autophagosomes are shown in the EGFP channel and autolysosomes in the mCherry channel. Fold change in the number of autophagosomes (B) and autolysosomes (C) puncta in ULK1 agonist treated cells. (D) Western blot of PANC-1 cells treated with DMSO, bafilomycin and ULK1 agonists±bafilomycin; probed for p-ULK1 (S317), ULK1, p62, b-actin, LC3-I and LC3-II. Quantifications of western blot for changes in the ratio of p-ULK1 (S317):ULK1 (E), p62 (F) and LC31:LC3II (G). All data shown are mean±SEM, n=3, *p<0.05, ** p<0.01, one-way ANOVA with Dunnett's multiple comparisons test.
(§2) FIG. 4. ULKTACs retain ULK1 agonist activity and subsequent induction of autophagy (A) Western blot of PANC-1 cells treated with ULKTACs±bafilomycin, probed for p-ULK1 (S317), ULK1, p62, b-Actin, LC31 and LC3II. Quantifications of (A) for the pULK1:ULK1 ratio (B) LC3I:LC3II ratio (C) and changes in p62 (D). (E) Representative images of PANC-1 cells stably expressing the mCherry-EGFP-LC3 tandem reporter treated with ULKTACs w/or w/o bafilomycin. Nuclei stained with Hoechst 33342, autophagosomes are shown in the EGFP channel and autolysosomes in the mCherry channel. […]
(§3) Cells were homogenised in protein lysis buffer consisting of 0.1 M Tris pH 8.0, 0.1 M NaCl, 5% glycerol, IGEPAL® CA-630 (#18896. Sigma-Aldrich) and 5 mM EDTA, 0.1 M N-ethyl maleimide (ThermoFisher, #23030) and protease inhibitor (Cell Signalling Technologies, #5871). Protein concentrations were determined using the BCA assay to ensure equal loading. […]
(§4) Membranes were then incubated with horseradish peroxidase (HRP)-conjugated secondary antibodies (Rabbit #7074 and Mouse #7076) purchased from Cell Signalling Technologies for 1 hour and the HRP signal was detected using EZ-ECL Enhanced Chemiluminescence Detection Kit for HRP (#20-500-500, Sartorius), and imaged with an Alliance Q9 Advanced (UVITec). […]

LC3 = experiment: Western blot, LC3I:LC3II ratio in PANC-1 cells; type: cell-based, human
Excerpt: as §1, §2, §3, §4

Row | SMILES | p62/SQSTM1 levels (p62/SQSTM1) | LC31: LC3II ratio (LC3)
1 | O=C(Nc1cc(C(F)(F)F)cc(C(F)(F)F)c1)N[C@@H](C(=O)Nc1ccc(F)cc1F)c1ccc(OCc2cn(CCOCCOCCNC(=O)C(=O)c3c(-c4ccccc4)[nH]c4ccccc34)nn2)cc1 [NZ-65, (R)-2-(3-(3,5-bis(trifluoromethyl)phenyl)ureido)-N-(2,4-difluorophenyl)-2-(4-((1-(2-(2-(2-(2-oxo-2-(2-phenyl-1H-indol-3-yl)acetamido)ethoxy)ethoxy)ethyl)-1H-1,2,3-triazol-4-yl)methoxy)phenyl) acetamide] | mild reductions in p62/SQSTM1 | increases in the LC31: LC3II ratio
2 | O=C(Nc1cc(C(F)(F)F)cc(C(F)(F)F)c1)N[C@@H](C(=O)Nc1ccc(F)cc1F)c1ccc(OCc2cn(CCCCCCNC(=O)C(=O)c3c(-c4ccccc4)[nH]c4ccccc34)nn2)cc1 [NZ-66, (R)-2-(3-(3,5-bis(trifluoromethyl)phenyl)ureido)-N-(2,4-difluorophenyl)-2-(4-((1-(6-(2-oxo-2-(2-phenyl-1H-indol-3-yl)acetamido)hexyl)-1H-1,2,3-triazol-4-yl)methoxy)phenyl) acetamide] | mild reductions in p62/SQSTM1 | increases in the LC31: LC3II ratio
3 | O=C(Nc1ccc(F)cc1F)[C@H](NC(=S)Nc1cc(C(F)(F)F)cc(C(F)(F)F)c1)c1ccccc1 [BL-918, reference compound] | reduction in p62/SQSTM1 levels | increases in the LC31: LC3II ratio
